This is an account of results in US12240855B2, “Pyrrolopyrazole derivative” (DAIICHI SANKYO COMPANY, LIMITED, priority 2019, dated 2025).

Each structure is given as a SMILES string.

Test [1] deals with PTDSS2-KO HCT116 cell-subcutaneous transplanted model. Nature of the test: Test Example 4: Antitumor activity on PTDSS2-KO HCT116 cell-subcutaneous transplanted model. The following applies: oral. The class given is in vivo, female BALB/c-nu/nu mice. The source says: HCT116 cell-subcutaneous transplanted model PTDSS2-KO HCT116 cells were transplanted to a right subcutaneous axillary portion of female BALB/c-nu/nu mice at a proportion of 1×10^7 cells/head, and when the tumor volume reached 100 to 300 mm^3 (estimated tumor volume (major axis×minor axis×minor axis/2)), mice were divided into groups of 6 or 5 mice each such that there was no difference between groups. The female BALB/c-nu/nu mice were purchased from CHARLES RIVER LABORATORIES JAPAN, INC. The compounds of Examples 58, 57, 53, 30, 42, 32, 34, 33, and 31 were orally administered from the day of grouping in the dosing schedule shown in Table 12 (twice daily, 11 successive days (BID×11), or once daily, 13 successive days (QD×13)). The tumor volume was measured until the next day of completion of the administration (test end date). 0.5% methylcellulose (MC) was administered to the vehicle control group as the vehicle.
TGI %=(1−TVt/TVc)×100 • TGI: Tumor growth suppression rate • TVt: Group mean tumor volume of compound administration group on test end date • TVc: Group mean tumor volume of vehicle control group on test end date

The test system of a further test is HCT116 cells. Put plainly: cells. The following applies: Homo sapiens, HCT-116, 72 h, read-out: Test Example 3 HCT116 GI50.
Setting [2] is: 10 mg/kg, QD × 13, test end date.
Where [3] appears, read: 20 mg/kg, QD × 13, test end date.
Setting [4] is: 40 mg/kg, QD × 13, test end date.

Experimental for HCT116 cells: McCoy's 5A medium containing 10% bovine serum was used as the culture medium for each cell. […] They were added to each well of 384-well plates at 40 nL/well using an Echo555 (Labcyte Inc.). […] On the day of compound addition (day 0) and 3 days after compound addition (day 3), 10 μL/well of CellTiter-Glo® 2.0 Assay (Promega, #G9242), which is a reagent for ATP measurement, was added to each well, and the amount of luminescence in each well was measured with EnVision. From the amount of luminescence on the day of compound addition (C0) and the amount of luminescence of the compound non-addition group (C3) and compound addition group (T3) after 3 days of culture, cell viability was calculated based on the following formula. Cell viability (%)=[(T3−C0)/(C3−C0)]×100

As to `CC(F)(F)CN1C(=O)c2[nH]nc(-c3cccc4[nH]c(=O)oc34)c2C1c1ccc(Oc2ccc(OC(F)(F)F)cc2)cc1` (single isomer, unassigned; (-)) [Example 30, (−)-7-[5-(2,2-difluoropropyl)-6-oxo-4-{4-[4-(trifluoromethoxy)phenoxy]phenyl}-1,4,5,6,-tetrahydropyrrolo[3,4-c]pyrazol-3-yl]-1,3-benzoxazol-2-(3H)-one], the “TGI (%)” value in test [1] (setting [2]) is reported as 26%; in test [1] (setting [3]) it was 50%; in test [1] (setting [4]), 83%.

Consider `CC(F)(F)CN1C(=O)c2[nH]nc(-c3cccc4[nH]c(=O)oc34)c2C1c1ccc2c(cnn2-c2ccccc2)c1` (centres unmarked) [Example 88, 7-[5-(2,2-Difluoropropyl)-6-oxo-4-(1-phenyl-1H-indazol-5-yl)-1,4,5,6-tetrahydropyrrolo[3,4-c]pyrazol-3-yl]-1,3-benzoxazol-2(3H)-one], for which the GI50 in the test on HCT116 cells was found to be 7.9 µM. On the same count and under the same terms, then `CC(F)(F)CN1C(=O)c2[nH]nc(-c3cccc(NC=O)c3)c2C1c1ccc(Cl)cc1` (centres unmarked) [Example 92, N-{3-[4-(4-Chlorophenyl)-5-(2,2-difluoropropyl)-6-oxo-1,4,5,6-tetrahydropyrrolo[3,4-c]pyrazol-3-yl]phenyl}formamide], with 11 µM. Turning to `CC(F)(F)CN1C(=O)c2[nH]nc(-c3cccc4[nH]c(=O)oc34)c2C1c1ccc(Oc2cc(Cl)cc(OC(F)(F)F)c2)cc1` (single isomer, unassigned; (-)) [Example 34, (−)-7-[4-{4-[3-Chloro-5-(trifluoromethoxy)phenoxy]phenyl}-5-(2,2-difluoropropyl)-6-oxo-1,4,5,6-tetrahydropyrrolo[3,4-c]pyrazol-3-yl]-1,3-benzoxazol-2(3H)-one], the “TGI (%)” value in test [1] (setting [2]) was 63%; in test [1] (setting [3]), 87%; in test [1] (setting [4]), 96%. Turning to `Cc1cc(Oc2ccc(C3c4c(-c5cccc6[nH]c(=O)oc56)n[nH]c4C(=O)N3CC(C)(F)F)cc2)ccc1OC(F)(F)F` (single isomer, unassigned; (-)) [Example 32, (−)-7-[5-(2,2-difluoropropyl)-4-{4-[3-methyl-4-(trifluoromethoxy)phenoxy]phenyl}-6-oxo-1,4,5,6-tetrahydropyrrolo[3,4-c]pyrazol-3-yl]-1,3-benzoxazol-2(3H)-one], the figures for the “TGI (%)” value in test [1] (setting [2]), in test [1] (setting [3]) and in test [1] (setting [4]) were 95%, 98% and 98%, respectively. Turning to `CCC(F)(F)CN1C(=O)c2[nH]nc(-c3cccc4[nH]c(=O)oc34)c2C1c1ccc(F)cc1` (centres unmarked) [Example 11, 7-[5-(2,2-Difluorobutyl)-4-(4-fluorophenyl)-6-oxo-1,4,5,6-tetrahydropyrrolo[3,4-c]pyrazol-3-yl]-1,3-benzoxazol-2(3H)-one], the GI50 with HCT116 cells is more than 25 µM. Same read-out and setting: then `O=C1c2[nH]nc(-c3ccc(F)c4[nH]c(=O)oc34)c2C(c2cc(Oc3ccccc3)ccc2F)N1CC(F)(F)F` (centres unmarked) [Example 16, 4-Fluoro-7-[4-(2-fluoro-5-phenoxy]phenyl)-6-oxo-5-(2,2,2-trifluoroethyl)-1,4,5,6-tetrahydropyrrolo[3,4-c]pyrazol-3-yl-1,3-benzoxazol-2(3H)-one], with more than 25 µM. On to `CC(F)(F)CN1C(=O)c2[nH]nc(-c3cccc4[nH]c(=O)oc34)c2C1c1ccc(Oc2ccc(Cl)cc2)cc1` (single isomer, unassigned; (-)) [Example 57, (−)-7-{4-[4-(4-Chlorophenoxy)phenyl]-5-(2,2-difluoropropyl)-6-oxo-1,4,5,6-tetrahydropyrrolo[3,4-c]pyrazol-3-yl}-1,3-benzoxazol-2(3H)-one], for which the “TGI (%)” value is on record as 89% in test [1] (50 mg/kg, BID × 11, test end date) and 97% in test [1] (100 mg/kg, BID × 11, test end date). As for `CC(F)(F)CN1C(=O)c2[nH]nc(-c3cccc4[nH]c(=O)oc34)c2C1c1ccc(C(F)(F)c2ccccc2)cc1` (centres unmarked) [Example 91, 7-[4-{4-[Difluoro(phenyl)methyl]phenyl}-5-(2,2-difluoropropyl)-6-oxo-1,4,5,6-tetra hydropyrrolo[3,4-c]pyrazol-3-yl]-1,3-benzoxazol-2(3H)-one], the GI50 with HCT116 cells amounted to 15 µM. On the same count and under the same terms, the figure for `CC(F)(F)CN1C(=O)c2[nH]nc(-c3cccc4[nH]c(=O)oc34)c2C1c1ccc(Oc2ccc(Cl)cc2)cn1` (centres unmarked) [Example 77, 7-{4-[5-(4-Chlorophenoxy)pyridin-2-yl]-5-(2,2-difluoropropyl)-6-oxo-1,4,5,6-tetrahydropyrrolo[3,4-c]pyrazol-3-yl]-1,3-benzoxazol-2(3H)-one] is more than 25 µM; for `CC(F)(F)CN1C(=O)c2[nH]nc(-c3cccc4[nH]c(=O)oc34)c2C1c1cnc(C(F)(F)F)s1` (single isomer, unassigned) [Example 24, 7-{5-(2,2-Difluoropropyl)-6-oxo-4-[2-(trifluoromethyl)-1,3-thiazol-5-yl]-1,4,5,6-tetrahydropyrrolo[3,4-c]pyrazol-3-yl}-1,3-benzoxazol-2(3H)-one (enantiomer)] it is more than 25 µM. The same measure, in the same setting: then `CC(F)(F)CN1C(=O)c2[nH]nc(-c3cccc4[nH]c(=O)oc34)c2C1c1cc(Oc2ccc(F)cc2)ccn1` (centres unmarked) [Example 78, 7-{5-(2,2-Difluoropropyl)-4-[4-(4-fluorophenoxy)pyridin-2-yl]-6-oxo-1,4,5,6-tetrahydropyrrolo[3,4-c]pyrazol-3-yl}-1,3-benzoxazol-2(3H)-one], with more than 25 µM; and `CC(F)(F)CN1C(=O)c2[nH]nc(-c3cccc4[nH]c(=O)oc34)c2C1c1ccc(CN2CCC(F)(F)CC2)cc1` (single isomer, unassigned) [Example 83, 7-[4-{4-[(4,4-Difluoropiperidin-1-yl)methyl]phenyl}-5-(2,2-difluoropropyl)-6-oxo-1,4,5,6-tetrahydropyrrolo[3,4-c]pyrazol-3-yl]-1,3-benzoxazol-2(3H)-one (enantiomer)], with more than 25 µM. On the same count and under the same terms, then `O=C1c2[nH]nc(-c3cc(Oc4ccccc4)cc4[nH]c(=O)oc34)c2C(c2ccc(F)cc2)N1CC(F)(F)F` (centres unmarked) [Example 15, 7-[4-(4-Fluorophenyl)-6-oxo-5-(2,2,2-trifluoroethyl)-1,4,5,6-tetrahydropyrrolo[3,4-c]pyrazol-3-yl]-5-phenoxy-1,3-benzoxazol-2(3H)-one], with more than 25 µM. With `O=C1c2[nH]nc(-c3cccc4[nH]c(=O)oc34)c2C(c2cccc(OC3CCC(F)(F)CC3)c2)N1CC1CC1` (centres unmarked) [Example 7, 7-[5-(Cyclopropylmethyl)-4-{3-[(4,4-difluorocyclohexyl)oxy]phenyl}-6-oxo-1,4,5,6-tetrahydropyrrolo[3,4-c]pyrazol-3-yl]-1,3-benzoxazol-2(3H)-one], the GI50 in the test with HCT116 cells was determined as 15 µM. The same measure, in the same setting: then `O=C1c2[nH]nc(-c3cccc4[nH]c(=O)oc34)c2C(c2cccc(Oc3ccc(Cl)cn3)c2)N1CC1CC1` (centres unmarked) [Example 3], with 13 µM; and `CC(F)(F)CN1C(=O)c2[nH]nc(-c3cccc4[nH]c(=O)oc34)c2C1c1ccc(Oc2cc(C(F)(F)F)cc(C(F)(F)F)c2)cc1F` (single isomer, unassigned) [Example 66, 7-[4-{4-[3,5-Bis(trifluoromethyl)phenoxy]-2-fluorophenyl}-5-(2,2-difluoropropyl)-6-oxo-1,4,5,6-tetrahydropyrrolo[3,4-c]pyrazol-3-yl]-1,3-benzoxazol-2(3H)-one (enantiomer)], with more than 25 µM; and `CC(F)(F)CN1C(=O)c2[nH]nc(-c3cccc4[nH]c(=O)oc34)c2C1c1ccnc(Oc2ccccc2)c1` (centres unmarked) [Example 72, 7-[5-(2,2-Difluoropropyl)-6-oxo-4-(2-phenoxypyridin-4-yl)-1,4,5,6-tetrahydropyrrolo[3,4-c]pyrazol-3-yl]-1,3-benzoxazol-2(3H)-one], with more than 25 µM. Still for that read-out and setting: the figure for `O=C1c2[nH]nc(-c3cccc4[nH]c(=O)oc34)c2C(c2ccc(Oc3ccc(Cl)cc3)cc2)N1CC1CC1` (single isomer, unassigned) [Example 2, 7-{4-[4-(4-Chlorophenoxy)phenyl]-5-(cyclopropylmethyl)-6-oxo-1,4,5,6-tetrahydropyrrolo[3,4-c]pyrazol-3-yl}-1,3-benzoxazol-2(3H)-one (enantiomer)] is 10 µM. The same measure, in the same setting: the figure for `O=C1c2[nH]nc(-c3cccc4[nH]c(=O)oc34)c2C(c2cccc(Oc3ccccc3)c2)N1Cc1ncco1` (centres unmarked) [Example 12, 7-{5-[(1,3-Oxazol-2-yl)methyl]-6-oxo-4-(3-phenoxyphenyl)-1,4,5,6-tetrahydropyrrolo[3,4-c]pyrazol-3-yl}-1,3-benzoxazol-2(3H)-one] is more than 25 µM; for `CC(F)(F)CN1C(=O)c2[nH]nc(-c3cccc(NC(N)=O)c3)c2C1c1ccc(Cl)cc1` (centres unmarked) [Example 93, N-{3-[4-(4-Chlorophenyl)-5-(2,2-difluoropropyl)-6-oxo-1,4,5,6-tetrahydropyrrolo[3,4-c]pyrazol-3-yl]phenyl}urea] it is more than 25 µM; for `Cc1nc(C2c3c(-c4cccc5[nH]c(=O)oc45)n[nH]c3C(=O)N2CC(C)(F)F)ccc1F` (single isomer, unassigned) [Example 23, 7-[5-(2,2-Difluoropropyl)-4-(5-fluoro-6-methylpyridin-2-yl)-6-oxo-1,4,5,6-tetrahydropyrrolo[3,4-c]pyrazol-3-yl]-1,3-benzoxazol-2(3H)-one (enantiomer)] it is more than 25 µM.

The GI50 is the concentration that inhibits growth by half.
